Assay results as given in patent US20070092474A1, “Carnitine salt, preliposome which contains it and dermocosmetic formula for topical use based upon said carnitine salt” (priority 2003, published 2007).
Several values for one entry are separate records, joined by “and”; a condition that tells them apart may be missing. Identical values can stand only once.

Test system: skin blemishes caused by cellulite and localised adiposity
Assay: Plicometry: skin plica thickness measured with a plicometer, dermatological test of the cosmetic gel
Format: in vivo, female volunteers
Details: same tests repeated with the single reactant; site and time point of each value not given
Method: A dermatological test was carried out on 25 female volunteers between 18 and 65 years of age, with the backing of the Department of Physiological and Pharmacological Sciences of the university of Pavia. The investigation aimed to check the modification of three anatomical-physiological parameters, qualifying the unaesthetic-functional aspect connected to the manifestation of so-called cellulite and subcutaneous hypertriglyceridaemia: measurement of the skin folds, measurement of the circumference of the thighs, thermographic skin measurement.
The test stretched out over 60 days with the continual daily application of the aforementioned preparation of cosmetic gel. The measurements were carried out after 15, 30 and 60 days. The detail of the test protocol and of the results obtained is shown hereafter.
25 female volunteers aged between 18 and 65, with the presence of skin blemishes caused by cellulite and localised adiposity, were selected according to the following criteria: good general state of health, absence of skin pathologies, not being under medication, commitment not to vary the normal daily routine, no medical history of atopy.
The samples were tested by uniformly applying them on “Glute SX Glute DJ (Femoris Posto SX Femoris Posto DX Femoris Ant. SX Femoris Ant. DX” every day at least once per day for the entire duration of the test.
At the time of inclusion in the study and during the subsequent checks after 15 days (T15), after 30 days (T30) and after 60 days (T60) of treatment the following instrumental measurements were taken: • plicometry (through a plicometer) • thigh circumference (through a measuring tape broken into millimetres) • contact thermography (through liquid crystal thermographic plates).
In particular, the plicometer used in the test constitutes the suitable instrument for measuring the skin plica thickness. Skin plicometry provides numerical data of particular use when the panniculopathic process of the cellulite is associated with localised adiposity.

In the case of `C[N+](C)(C)CC(O)CC(=O)O` (stereo not shown) [Carnitine (II), 3-carboxy-2-hydroxy-propyl trimethyl amine, reference compound], the “PLICOMETRY SX, average values” is reported as 25.7 and 23.7.
